Source: DBAASP
≈ marks a conversion by molar mass, not a printed value.

Assays:
Experiment in all cases: ≥ marks a high value that may be exact or a test limit, other limits are often not marked, values filed in µg/mL are converted to µM
Bacillus subtilis 168 = test system: Bacillus subtilis 168
[1] = test system: Candida albicans F7-39/IDE99
Escherichia coli B = test system: Escherichia coli B
Pseudomonas aeruginosa = test system: Pseudomonas aeruginosa
Staphylococcus aureus = test system: Staphylococcus aureus
Bacillus subtilis = test system: Bacillus subtilis
[2] = test system: Candida albicans ATCC 2002
[3] = test system: Escherichia coli ATCC 25922
[4] = test system: Staphylococcus aureus ATCC 25923
[5] = test system: Staphylococcus aureus ATCC BAA-1556

An MIC (Bacillus subtilis 168) of 1.3 µM (≈ 1.91 µg/mL), an MIC [1] of 7 µM (≈ 10.3 µg/mL) and an MIC (Escherichia coli B) of 2.7 µM (≈ 3.96 µg/mL) were found for `CC[C@H](C)[C@H](NC(=O)[C@H](Cc1cnc[nH]1)NC(=O)[C@H](CCCCN)NC(=O)[C@H](CC(C)C)NC(=O)[C@H](CC(C)C)NC(=O)[C@@H](NC(=O)[C@H](CCSC)NC(=O)[C@H](Cc1c[nH]c2ccccc12)NC(=O)[C@H](CCCCN)NC(=O)CN)[C@@H](C)O)C(=O)N[C@@H](CC(C)C)C(=O)N[C@@H](CCCCN)C(N)=O` [GKWMTLLKHILK] in this work. The MIC (Pseudomonas aeruginosa) was 38.3 µM (≈ 56.2 µg/mL) and the MIC (Staphylococcus aureus) was 5.3 µM (≈ 7.77 µg/mL).

An MIC (Bacillus subtilis) of 1.21 µM (≈ 3.52 µg/mL), an MIC [2] of 0.202 µM (≈ 0.586 µg/mL) and an MIC [3] of 6.45 µM (≈ 18.8 µg/mL) were found for `CC[C@H](C)[C@H](NC(=O)[C@H](C)NC(=O)[C@H](CCCN=C(N)N)NC(=O)[C@H](Cc1ccc(O)cc1)NC(=O)[C@H](CC(C)C)NC(=O)[C@H](CC(N)=O)NC(=O)[C@H](Cc1ccc(O)cc1)NC(=O)CNC(=O)[C@H](C)NC(=O)[C@@H](NC(=O)[C@@H](NC(=O)[C@@H](NC(=O)[C@H](CCCN=C(N)N)NC(=O)[C@@H](NC(=O)[C@@H](NC(=O)[C@@H](NC(=O)[C@@H]1CCCN1C(=O)[C@H](Cc1c[nH]c2ccccc12)NC(=O)[C@H](Cc1ccccc1)NC(=O)[C@H](CCCN=C(N)N)NC(=O)[C@@H](N)CCCCN)C(C)C)C(C)C)[C@@H](C)CC)[C@@H](C)O)C(C)C)C(C)C)C(=O)N[C@@H](CCCCN)C(=O)N[C@@H](CCCCN)C(=O)N[C@@H](CCCCN)C(=O)O` [KRFWPVVIRTVVAGYNLYRAIKKK] in this work. For the same compound, the MIC [4] was 1.21 µM (≈ 3.52 µg/mL).

In the case of `CC(C)C[C@H](NC(=O)[C@H](CC(C)C)NC(=O)[C@H](CCCCN)NC(=O)[C@H](CC(C)C)NC(=O)[C@H](CC(C)C)NC(=O)[C@H](CC(C)C)NC(=O)[C@H](CC(C)C)NC(=O)[C@H](CC(C)C)NC(=O)[C@@H](N)CC(C)C)C(N)=O` [LLLLLLKLL], the MIC [5] is reported as ≥ 100 µM.

An MIC [5] of 3.12 µM (≈ 4.28 µg/mL) was found for `CC(C)C[C@H](NC(=O)[C@H](Cc1c[nH]c2ccccc12)NC(=O)[C@H](CCCN=C(N)N)NC(=O)[C@H](CC(C)C)NC(=O)[C@H](Cc1c[nH]c2ccccc12)NC(=O)[C@H](Cc1c[nH]c2ccccc12)NC(=O)[C@H](CC(C)C)NC(=O)[C@H](Cc1c[nH]c2ccccc12)NC(=O)[C@@H](N)CC(C)C)C(N)=O` [LWLWWLRWL] in this work.

An MIC [5] of 12.5 µM (≈ 13.4 µg/mL) was found for `CC(C)C[C@H](NC(=O)[C@H](Cc1c[nH]c2ccccc12)NC(=O)[C@H](CCCN=C(N)N)NC(=O)[C@H](CC(C)C)NC(=O)[C@H](Cc1c[nH]c2ccccc12)NC(=O)[C@H](Cc1c[nH]c2ccccc12)NC(=O)[C@@H](N)CC(C)C)C(N)=O` [LWWLRWL] in this work.

An MIC (Bacillus subtilis 168) of 0.7 µM (≈ 1.22 µg/mL), an MIC [1] of 10 µM (≈ 17.4 µg/mL) and an MIC (Escherichia coli B) of 1.4 µM (≈ 2.43 µg/mL) were found for `CC[C@H](C)[C@H](NC(=O)[C@H](CCCCN)NC(=O)[C@H](CCCCN)NC(=O)[C@H](Cc1c[nH]c2ccccc12)NC(=O)[C@H](CC(N)=O)NC(=O)[C@@H](N)C(C)C)C(=O)N[C@@H](CC(C)C)C(=O)NCC(=O)N[C@@H](CCCCN)C(=O)N[C@H](C(=O)N[C@H](C(=O)N[C@@H](CCCCN)C(=O)N[C@H](C(=O)N[C@@H](C)C(=O)N[C@@H](CCCCN)C(N)=O)C(C)C)[C@@H](C)CC)[C@@H](C)CC` [VNWKKILGKIIKVAK] in this work. For the same compound, the MIC (Pseudomonas aeruginosa) was 14.4 µM (≈ 25 µg/mL) and the MIC (Staphylococcus aureus) was 9 µM (≈ 15.6 µg/mL).

An MIC [5] of 6.25 µM (≈ 7.86 µg/mL) was found for `CC(C)C[C@H](NC(=O)[C@H](Cc1c[nH]c2ccccc12)NC(=O)[C@H](CCCN=C(N)N)NC(=O)[C@H](CC(C)C)NC(=O)[C@H](Cc1c[nH]c2ccccc12)NC(=O)[C@H](Cc1c[nH]c2ccccc12)NC(=O)[C@H](CC(C)C)NC(=O)[C@@H](N)Cc1c[nH]c2ccccc12)C(N)=O` [WLWWLRWL] in this work.

An MIC (Bacillus subtilis) of 15.2 µM (≈ 37.5 µg/mL), an MIC [2] of 0.947 µM (≈ 2.34 µg/mL) and an MIC [3] of 15.2 µM (≈ 37.5 µg/mL) were found for `CC[C@H](C)[C@H](NC(=O)[C@H](C)NC(=O)[C@H](CCCN=C(N)N)NC(=O)[C@H](Cc1ccc(O)cc1)NC(=O)[C@H](CC(C)C)NC(=O)[C@H](CC(N)=O)NC(=O)[C@H](Cc1ccc(O)cc1)NC(=O)CNC(=O)[C@H](C)NC(=O)[C@@H](NC(=O)[C@@H](NC(=O)[C@@H](NC(=O)[C@H](CCCN=C(N)N)NC(=O)[C@@H](NC(=O)[C@@H](NC(=O)[C@@H](NC(=O)[C@@H]1CCCN1C(=O)[C@@H](N)Cc1c[nH]c2ccccc12)C(C)C)C(C)C)[C@@H](C)CC)[C@@H](C)O)C(C)C)C(C)C)C(=O)N[C@@H](CCCCN)C(=O)N[C@@H](CCCCN)C(=O)N[C@@H](CCCCN)C(=O)O` [WPVVIRTVVAGYNLYRAIKKK] in this work. It also gave an MIC [4] of 5.68 µM (≈ 14.1 µg/mL).
